Six compounds from US20080045507A1, “SUBSTITUTED BENZAMIDE MODULATORS OF THE HISTAMINE H3 RECEPTOR” (priority 2006, published 2008) can be followed below.

Assay [1] has as its target T1, human H3 receptor (Homo sapiens, UniProt Q9Y5N1).
T1 construct: expressed in transfected cells
Put plainly: H3 receptor binding, cloned human H3 receptor stably expressed in SK-N-MC cells. The conditions noted are these: average of results. Here is the method: (§1) Binding of compounds to the cloned human and rat H3 receptors, stably expressed in SK-N-MC cells, was performed as described by Barbier, A. J. et al. (Br. J. Pharmacol. 2004, 143(5), 649-661). Data for compounds tested in these assays are presented in Table 1 (human) and Table 2 (rat), as an average of the results obtained.

The target of assay [2] is T2, rat H3 receptor (Rattus norvegicus, UniProt Q9QYN8).
T2 construct: expressed in transfected cells
T2 sequence (Q9QYN8 whole entry): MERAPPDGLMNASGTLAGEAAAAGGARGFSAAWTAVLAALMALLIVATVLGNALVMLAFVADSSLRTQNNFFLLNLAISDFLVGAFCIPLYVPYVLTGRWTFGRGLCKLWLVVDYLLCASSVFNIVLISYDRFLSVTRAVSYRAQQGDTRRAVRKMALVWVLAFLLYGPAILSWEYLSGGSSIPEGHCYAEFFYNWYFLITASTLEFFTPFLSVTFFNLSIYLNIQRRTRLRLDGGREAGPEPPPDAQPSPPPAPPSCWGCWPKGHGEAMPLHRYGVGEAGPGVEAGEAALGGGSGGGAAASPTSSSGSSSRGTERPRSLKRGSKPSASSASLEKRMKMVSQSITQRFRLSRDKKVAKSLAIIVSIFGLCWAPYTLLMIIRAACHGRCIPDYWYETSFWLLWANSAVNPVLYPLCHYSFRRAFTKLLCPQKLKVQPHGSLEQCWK
Put plainly: H3 receptor binding, cloned rat H3 receptor stably expressed in SK-N-MC cells. The conditions noted are these: average of results. Here is the method:
as §1

Assay [3] has as its target T1, human H3 receptor. Put plainly: Cyclic AMP accumulation, SK-N-MC subline with reporter construct and human H3 receptor. The assay is classed as cell-based. The conditions noted are these: cAMP accumulation, SK-N-MC reporter cells expressing human H3; average of results; read-out: Human pA2 (converted). An excerpt: (§2) Sublines of SK-N-MC cells were created that expressed a reporter construct and either the human or rat H3 receptor. The pA2 values were obtained as described by Barbier et al. (2004). Data for compounds tested in these assays are presented in Table 3, as an average of the results obtained (NT=not tested).

In assay [4] the target is T2, rat H3 receptor. The assay can be described thus: Cyclic AMP accumulation, SK-N-MC subline with reporter construct and rat H3 receptor. The assay is classed as cell-based. The conditions noted are these: cAMP accumulation, SK-N-MC reporter cells expressing rat H3; average of results; read-out: Rat pA2 (converted).
Text: as §2
A general note: Cyclic AMP is a second messenger, typically raised through Gs and lowered through Gi signalling.

T1 sequence (Q9Y5N1 whole entry): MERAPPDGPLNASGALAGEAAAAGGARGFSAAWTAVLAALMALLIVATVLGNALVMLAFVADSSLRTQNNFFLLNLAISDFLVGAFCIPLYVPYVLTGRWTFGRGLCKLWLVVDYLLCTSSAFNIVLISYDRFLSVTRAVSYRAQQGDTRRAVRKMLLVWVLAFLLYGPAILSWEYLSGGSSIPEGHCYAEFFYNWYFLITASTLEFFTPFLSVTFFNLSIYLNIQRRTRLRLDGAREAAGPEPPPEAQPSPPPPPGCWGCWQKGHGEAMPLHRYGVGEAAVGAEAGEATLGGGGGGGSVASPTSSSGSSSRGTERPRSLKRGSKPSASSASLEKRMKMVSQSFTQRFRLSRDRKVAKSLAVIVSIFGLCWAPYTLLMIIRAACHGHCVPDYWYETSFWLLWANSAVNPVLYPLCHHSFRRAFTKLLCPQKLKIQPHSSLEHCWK

One may read the Ki as the equilibrium dissociation constant of an inhibitor or competing ligand from its target. The low end stands for higher affinity, the high end for lower affinity. In the case of `CC(C)N1CCCN(C(=O)c2ccc(C(O)C3CCCCC3)cc2)CC1` (stereo not shown) [Example 7, [4-(Cyclohexyl-hydroxy-methyl)-phenyl]-(4-isopropyl-[1,4]diazepan-1-yl)-methanone], the values for the inhibition constant (Ki) on human H3 receptor [1] and at rat H3 receptor [2] were 2 nM and 75 nM, respectively. Also, the Kb was 0.871 nM at human H3 receptor [3] and 17.4 nM at rat H3 receptor [4].
Turning to `O=C(c1ccc(C(O)C2CCCCC2)cc1)N1CCCN(C2CC2)CC1` (stereo not shown) [Example 27, [4-(Cyclohexyl-hydroxy-methyl)-phenyl]-(4-cyclopropyl-[1,4]diazepan-1-yl)-methanone], the values for the inhibitory constant (Ki) at human H3 receptor [1] and on rat H3 receptor [2] were 1 nM and 37 nM, respectively. For the same compound, the values for the Kb on human H3 receptor [3] and on rat H3 receptor [4] were 0.955 nM and 6.92 nM, respectively.
In turn, `O=C(c1ccc(C(=O)N2CCCN(C3CC3)CC2)cc1)C1CCCCC1` [Example 29, (4-Cyclohexanecarbonyl-phenyl)-(4-cyclopropyl-[1,4]diazepan-1-yl)-methanone] came in with a Ki at human H3 receptor [1] of 1 nM. Further, the Kb is 0.912 nM at human H3 receptor [3] and 6.92 nM on rat H3 receptor [4].
In the case of `O=C(c1ccc(C(O)c2ccccc2)cc1)N1CCCN(C2CC2)CC1` (stereo not shown) [Example 30, (4-Cyclopropyl-[1,4]diazepan-1-yl)-[4-(hydroxy-phenyl-methyl)-phenyl]-methanone], the Ki came to 2 nM at human H3 receptor [1] and 28 nM on rat H3 receptor [2]. The Kb is 0.417 nM on human H3 receptor [3] and 1.51 nM at rat H3 receptor [4].
`CC(C)C(O)c1ccc(C(=O)N2CCCN(C3CC3)CC2)cc1` (stereo not shown) [Example 32, (4-Cyclopropyl-[1,4]diazepan-1-yl)-[4-(1-hydroxy-2-methyl-propyl)-phenyl]-methanone] yielded a Ki at human H3 receptor [1] of 3 nM. The Kb is 0.794 nM on human H3 receptor [3] and 12 nM on rat H3 receptor [4].
Consider `CC(C)(C)c1ccc(C(=O)N2CCN(C3CCC3)CC2)cc1` [Example 33, (4-tert-Butyl-phenyl)-(4-cyclobutyl-piperazin-1-yl)-methanone], for which the Ki was found to be 5 nM on human H3 receptor [1] and 152 nM at rat H3 receptor [2]. Moreover, the Kb on human H3 receptor [3] was 3.63 nM; at rat H3 receptor [4] it was 13.5 nM.
